Columns and labels:
eye of a subject = assay: IOP over time in a patient with a bimatoprost-loaded insert on one eye (FIG. 23); type: in vivo, human; details: right eye (OD) with ring insert, silicone matrix (NuSil Med 4810) with about 2% bimatoprost, decreased from about 22 mm Hg, to about 28 days post-op
Description: (§1) Test devices comprising a ring shaped retention structure comprising a nylon suture and a support structure 120 having inclined surfaces were placed in an eye of a subject. The support structure comprised a therapeutic agent contained in a silicone matrix. The silicone matrix comprised inclusions of the therapeutic agent as described herein, and the therapeutic agent comprised a prostaglandin. The silicone matrix comprised NuSil Med 4810 and the amount prostaglandin comprised about 2% bimatoprost. The cross-sectional diameter of the support comprising the matrix was about 1 mm and extended about 90 degrees around the ring shaped suture with the suture extending there through. The amount of therapeutic agent within the matrix can be increased with additional studies and embodiments, for example to within a range from about 5-10% prostaglandin such as bimatoprost. […] The ring was inserted in the right eye (OD) and the TOP decreased from about 22 mm Hg to within a range from about 15 to 18 mm Hg to about 28 days post-op. The TOP of the untreated left eye (OS) remained substantially constant and within a range from about 19 mm Hg to about 22 mm Hg. The therapeutic agent comprised a prostaglandin, bimatoprost, and the estimated amount released per day started at approximately 22 ug/day and decreased to approximately 1 ug/day. […]

[1] = Wash time in 70% isopropanol bath and rate of release from silicone matrices (FIG. 27); type: physicochemical; details: silicone ring with 7% bimatoprost; for elution rate: initial
Experimental: The experiments were conducted with silicone rings having 7% prostaglandin comprising bimatoprost and medical grade silicone having a rated durometer of Shore A 10 without drug. The elution rate for the unwashed matrix (“0 wash”) was about 35 ug per day and decreased substantially. […] By day 14 the rate of release was substantially the same for each of the unwashed matrix, the matrix washed for 15 minutes, matrix washed for 60 minutes, and the matrix washed for 180 minutes.

[2] = Rate of release measured on twin insert placed in solution (FIG. 28); type: physicochemical; details: for rate of release: based on twin measurements
Experimental: The initial studies on the test subject appear to indicate it may be helpful to provide greater amounts of therapeutic agent than would be provided based on eye drop estimates. The TOP was measured and amounts of therapeutic agent estimated. […] The twin insert was placed in a solution when the patient insert was placed in the eye. The measured rate of release of the twin placed in solution was used to determine the rate of release of the insert placed in the eye.

[3] = Estimated amount of bimatoprost released per day from the Experiment 6 test device; type: physicochemical; details: insert with about 2% bimatoprost in silicone matrix
Description: as §1

eye of a test subject = assay: IOP of a test subject wearing successive inserts (FIG. 28); type: in vivo, human
Experimental: The initial studies on the test subject appear to indicate it may be helpful to provide greater amounts of therapeutic agent than would be provided based on eye drop estimates. The TOP was measured and amounts of therapeutic agent estimated. […] The twin insert was placed in a solution when the patient insert was placed in the eye. The measured rate of release of the twin placed in solution was used to determine the rate of release of the insert placed in the eye. The data of this small study indicate that in at least some instances for some patients, the target threshold amount of therapeutic agent released continuously from an insert placed in the eye may be greater than the amount provided to tissue by drops. It was observed that providing amounts of therapeutic agent greater than the estimated amount provided by drops may provide an improved result. It was observed that after about sixty days the TOP had increased to about 19.5 mm Hg was close to the control eye, and the determined rate of release was about 1.2 ug of prostaglandin comprising bimatoprost per day. The insert was replaced with a second insert providing a rate of release of about 1.6 to 2.5 ug per day based on twin measurements, and the TOP decreased to within a range from about 17 to 18 mm Hg. The second insert was replaced with a third insert providing over 3.8 to 4 ug per day based on twin measurements, and the TOP decreased further to within a range from 14.5 to 16 mm Hg.

[4] = Rate of release of bimatoprost from insert with silicone matrix (FIGS. 26A, 26B); type: physicochemical
Experimental: FIGS. 26A and 26B show rates of release of prostaglandin comprising bimatoprost from an insert comprising a silicone matrix. The estimated rate of release for a matrix having 7% prostaglandin comprising bimatoprost loaded on the insert is above 3.5 ug per day for at least about 90 days. The rate of release of prostaglandin comprising bimatoprost was measured from a matrix comprising medical grade silicone having an approximate durometer of 10 A. The configuration of the insert and matrix is described in Table 3 with reverence to mono v.1 which comprises a 1 mm diameter silicone matrix extending along a 75 degree arc length. The surface area was 47.9 mm^2 and the volume 10.4 mm^3. For the 7% loading the amount of drug loaded on the device was about 700 μg. The rate of release of about 0.9 ug/day for 90 days was measured and the rate of release for 120 days was estimated. The therapeutic agent was released for 70 days above 1 ug per day. Based on Table 3, the matrix can be configured to release additional amounts therapeutic agent. For example, the rate of release can be increased by more than 4× by extending the matrix 360 degrees around the suture.

[5] = 60 minute wash in 70% isopropanol
[6] = 180 minute wash in 70% isopropanol

initial rate of release [1, 5]: about 13 ug per day
rate of release at 15 days [1, 5]: about 5 ug per day
initial rate of release [1, 6]: about 13 ug per day
rate of release at 15 days [1, 6]: about 5 ug per day
elution rate ([1]; unwashed matrix (0 wash)): about 35 ug per day
elution rate ([1]; washed for 15 minutes in 70% isopropanol): about 17 ug per day
determined rate of release ([2]; first insert, after about sixty days, twin insert in solution): about 1.2 ug per day
rate of release ([2]; second insert): 1.6 to 2.5 ug per day
rate of release ([2]; third insert): 3.8 to 4 ug per day
estimated amount released per day, end ([3]; decreased to): about 1 ug/day
estimated amount released per day, start ([3]; started at): about 22 ug/day
estimated rate of release ([4]; matrix having 7% bimatoprost loaded on an insert, for at least about 120 days): above 3 ug per day
estimated rate of release ([4]; matrix having 7% bimatoprost loaded on the insert, for at least about 90 days): above 3.5 ug per day
rate of release ([4]; mono v.1: 1 mm diameter 10 A silicone matrix, 75 degree arc, 7% loading (about 700 μg), measured for 90 days): about 0.9 ug/day
SMILES: CCNC(=O)CCC/C=C\C[C@@H]1[C@@H](/C=C/[C@@H](O)CCc2ccccc2)[C@H](O)C[C@@H]1O [bimatoprost]
TOP (eye of a subject): 15 to 18 mm Hg
TOP (eye of a test subject; first insert, after about sixty days, close to the control eye): about 19.5 mm Hg
TOP (eye of a test subject; second insert): 17 to 18 mm Hg
TOP (eye of a test subject; third insert): 14.5 to 16 mm Hg

Reference: patent publication US10835416B2, “Ocular insert apparatus and methods” (ForSight Vision5, Inc., priority 2011, dated 2020)
